The target of test [1] is T1, IL-23R (Homo sapiens, UniProt Q5VWK5).
T1 construct: HEK293 cells containing IL-23R, IL-12Rβ1 and a firefly luciferase reporter gene driven by a STAT-inducible promoter (Promega); host or cells: HEK293
T1 sequence (Q5VWK5 24-629): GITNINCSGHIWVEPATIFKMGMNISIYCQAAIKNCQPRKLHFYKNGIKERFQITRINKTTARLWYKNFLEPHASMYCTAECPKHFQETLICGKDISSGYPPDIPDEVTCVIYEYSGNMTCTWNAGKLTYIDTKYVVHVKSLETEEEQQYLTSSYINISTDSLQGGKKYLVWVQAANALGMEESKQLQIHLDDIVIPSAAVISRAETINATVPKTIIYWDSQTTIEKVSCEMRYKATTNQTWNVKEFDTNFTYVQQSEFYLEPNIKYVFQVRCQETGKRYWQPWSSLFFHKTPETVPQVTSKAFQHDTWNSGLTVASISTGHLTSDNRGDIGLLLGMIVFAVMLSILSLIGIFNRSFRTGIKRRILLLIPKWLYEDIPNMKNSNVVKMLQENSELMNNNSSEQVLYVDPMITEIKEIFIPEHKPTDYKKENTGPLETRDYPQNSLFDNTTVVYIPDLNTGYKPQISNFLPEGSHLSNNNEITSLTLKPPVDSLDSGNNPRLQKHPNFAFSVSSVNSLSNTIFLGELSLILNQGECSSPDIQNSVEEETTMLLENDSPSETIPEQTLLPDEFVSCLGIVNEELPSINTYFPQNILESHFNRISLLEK
Nature of the test: IL23R Reporter Assay. The class given is cell-based. The following applies: HEK293 cells containing IL-23R, IL-12Rβ1 and STAT-inducible firefly luciferase reporter; 10 ng/mL IL-23 (EC90); 5 h. The procedure, abridged:
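HEK293 cells carrying IL-23R, IL-12Rβ1 and a STAT-driven firefly luciferase reporter (4000 cells/well) received compound, then 10 ng/mL IL-23 solution (EC90), and were incubated for 5 h at 37° C. BioGlo luminescence was normalised to IL-23 alone (0%) and 30 μM control inhibitor (100%). IC50 came from a 4-parameter Hill fit.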

The subject of test [2] is IL-23-stimulated phosphorylated STAT3 in peripheral blood mononuclear cells (PBMCs). Nature of the test: PBMC pSTAT3 Assay. The test is classed as cell-based. The following applies: PBMCs from healthy donors; 30 min preincubation with peptide; IL-23 5 ng/mL for 30 min; phospho-STAT3 by MSD. The procedure, abridged: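 Healthy-donor PBMCs expanded 4 days on anti-CD3 with 100 ng/mL IL-1β, starved ~4 h in RPMI-0.1% BSA, preincubated 30 min with peptide, then stimulated 30 min at 37 °C with 5 ng/mL IL-23. Lysate pSTAT3 measured by MSD phospho-STAT panel; IC50 derived.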

For seven compounds, IC50 results are on record in patent US20260250320A1, “LIPIDATED PEPTIDE INHIBITORS OF INTERLEUKIN-23 RECEPTOR” (Janssen Pharmaceutica NV, priority 2023, published 2026).

*1 amine or outer side, *2 acyl side, *3 side chain or, on linkers, in order; H or OH if unused. Where a SMILES comes first, the peptide text is derived from it. Bridges are numbered along the chain shown (N, C = ends). Side-chain parts run from the residue outwards. [ ]: non-standard residue; d: D form. The star is where a group is joined. ξ: configuration not given here. FITC = O=C1OC2(c3ccc(O)cc3Oc3cc(O)ccc32)c2ccc(NC(=S)*)cc21; Me3N+(CH2)2O(CH2)2O(CH2)2CO = C[N+](C)(C)CCOCCOCCC(=O)*; Trp(7-Me) = Cc1cccc2c(C[C@H](N)C(=O)O)c[nH]c12; C20 diacid = O=C(O)CCCCCCCCCCCCCCCCCCC(=O)*; C18 diacid = O=C(O)CCCCCCCCCCCCCCCCC(=O)*; γGlu = O=C(O)[C@H](CCC(=O)[*:2])N[*:1]; 2Nal = N[C@@H](Cc1ccc2ccccc2c1)C(=O)O; AEF = NCCOc1ccc(C[C@H](N)C(=O)O)cc1; X2 = C[N+](C)(C)C[C@@H](CC(=O)O)N*; 2Pal = N[C@@H](Cc1ccccn1)C(=O)O; 3Pal = N[C@@H](Cc1cccnc1)C(=O)O; Lys(Me) = CNCCCC[C@H](N)C(=O)O; PEG4 = NCCOCCOCCOCCOCCC(=O)O; Pen = CC(C)(S)[C@H](N)C(=O)O; Suc = O=C(CCC(=O)[*:2])[*:1]; Thp = NC1(C(=O)O)CCOCC1; X1 = C[N+](C)(C)CCCCC*; ξN = NC(=O)CC(N)C(=O)O; AEEA = NCCOCCOCC(=O)O; Sar = CNCC(=O)O

The IC50 is the concentration that inhibits the measured activity by half. Low values mean greater potency in that assay, high ones weaker potency in that assay. As to `CC(=O)NCCCC[C@@H]1NC(=O)[C@H](Cc2c[nH]c3c(C)cccc23)NC(=O)[C@H]([C@@H](C)O)NC(=O)[C@H](CC(N)=O)NC(=O)[C@@H](NC(=O)[C@@H](CCCNC(=N)N)NC(=O)CCOCCOCCOCCOCCNC(=S)Nc2ccc3c(c2)C(=O)OC32c3ccc(O)cc3Oc3cc(O)ccc32)C(C)(C)SSC(C)(C)[C@@H](C(=O)N[C@@H](Cc2ccc(OCCN)cc2)C(=O)N[C@@H](Cc2ccc3ccccc3c2)C(=O)NC2(C(=O)N[C@@H](CCC(=O)O)C(=O)N[C@@H](CC(N)=O)C(=O)N[C@@H](Cc3cccnc3)C(=O)N(C)CC(=O)N[C@@H](CCCCNC(=O)COCCOCCNC(=O)COCCOCCNC(=O)CC[C@H](NC(=O)CCCCCCCCCCCCCCCCC(=O)O)C(=O)O)C(N)=O)CCOCC2)NC1=O` [compound 25, FITCPEG4CO-r-Pen(3)-N-T-7MeW-K(Ac)-Pen(3)-AEF-2Nal-THP-E-N-3Pya-Sar-K(PEG2PEG2gEC18OH)-CONH2] ({FITC-PEG4}-[dR][Pen]NT[Trp(7-Me)]K(Ac)[Pen][AEF][2Nal][Thp]EN[3Pal][Sar]K([AEEA-AEEA-γGlu-C18 diacid])-NH2; disulfide 2-7), the 50% inhibitory concentration (IC50) is 50 to 500 nM in test [1] and 0.5 to 5 nM in test [2].
For the compound `CC(=O)NCCCC[C@@H]1NC(=O)[C@H](Cc2c[nH]c3c(C)cccc23)NC(=O)[C@H]([C@@H](C)O)NC(=O)[C@H](CC(N)=O)NC(=O)[C@@H](NC(=O)[C@H](CCCCNC(=O)COCCOCCNC(=O)COCCOCCNC(=O)CC[C@H](NC(=O)CCCCCCCCCCCCCCCCC(=O)O)C(=O)O)CCCNC(=N)N)C(C)(C)SSC(C)(C)[C@@H](C(=O)N[C@@H](Cc2ccc(OCCN)cc2)C(=O)N[C@@H](Cc2ccc3ccccc3c2)C(=O)NC2(C(=O)N[C@@H](CCCCNC(=O)CCC(=O)N[C@H](CC(=O)O)C[N+](C)(C)C)C(=O)N[C@@H](CC(N)=O)C(=O)N[C@@H](Cc3cccnc3)C(=O)N(C)CC(N)=O)CCOCC2)NC1=O` [compound 32, HOC18gEPEG2PEG2CO-r-Pen(3)-N-T-7MeW-K(Ac)-Pen(3)-AEF(d)-2Nal-THP-E-N-3Pya-Sar-CONH2], the IC50 is 50 to 500 nM in test [1] and less than 0.5 nM in test [2].
In the same order, the values of `CC(=O)N[C@H](CCCNC(=N)N)C(=O)N[C@@H]1C(=O)N[C@@H](CC(N)=O)C(=O)N[C@@H]([C@@H](C)O)C(=O)N[C@@H](Cc2c[nH]c3c(C)cccc23)C(=O)N[C@@H](CCCCNC(=O)COCCOCCNC(=O)COCCOCCNC(=O)CC[C@H](NC(=O)CCCCCCCCCCCCCCCCC(=O)O)C(=O)O)C(=O)N[C@H](C(=O)N[C@@H](Cc2ccc(OCCNC(=O)CCC(=O)N[C@H](CC(=O)O)C[N+](C)(C)C)cc2)C(=O)N[C@@H](Cc2ccc3ccccc3c2)C(=O)NC2(C(=O)N[C@@H](CCC(=O)O)C(=O)N[C@@H](CC(N)=O)C(=O)N[C@@H](Cc3cccnc3)C(=O)N(C)CC(N)=O)CCOCC2)C(C)(C)SSC1(C)C` [compound 36, MeCO-r-Pen(3)-N-T-7MeW-K(PEG2PEG2gEC18OH)-Pen(3)-AEF(d)-2Nal-THP-E-N-3Pya-Sar-CONH2] (Ac-[dR][Pen]NT[Trp(7-Me)]K([AEEA-AEEA-γGlu-C18 diacid])[Pen][AEF]([Suc-X2])[2Nal][Thp]EN[3Pal][Sar]-NH2; disulfide 2-7) are 50 to 500 nM and less than 0.5 nM.
For the compound `CC(=O)NCCCC[C@@H]1NC(=O)[C@H](Cc2c[nH]c3c(C)cccc23)NC(=O)[C@H]([C@@H](C)O)NC(=O)[C@H](CC(N)=O)NC(=O)[C@@H](NC(=O)[C@@H](CCCNC(=N)N)NC(=O)CCC(=O)N[C@H](CC(=O)O)C[N+](C)(C)C)C(C)(C)SSC(C)(C)[C@@H](C(=O)N[C@@H](Cc2ccc(OCCN)cc2)C(=O)N[C@@H](Cc2ccc3ccccc3c2)C(=O)NC2(C(=O)N[C@@H](CCCCNC(=O)COCCOCCNC(=O)COCCOCCNC(=O)CC[C@H](NC(=O)CCCCCCCCCCCCCCCCC(=O)O)C(=O)O)C(=O)N[C@@H](CC(N)=O)C(=O)N[C@@H](Cc3ccccn3)C(=O)N(C)CC(N)=O)CCOCC2)NC1=O` [compound 49, succiniccarn-r-Pen(3)-N-T-7MeW-K(Ac)-Pen(3)-AEF-2Nal-THP-K(PEG2PEG2gEC18OH)-N-3Pya-Sar-CONH2] ({X2-Suc}-[dR][Pen]NT[Trp(7-Me)]K(Ac)[Pen][AEF][2Nal][Thp]K([AEEA-AEEA-γGlu-C18 diacid])N[2Pal][Sar]-NH2; disulfide 2-7), the IC50 in test [1] was 50 to 500 nM; in test [2] it was less than 0.5 nM.
On to `CC(=O)NCCCC[C@@H]1NC(=O)[C@H](Cc2c[nH]c3c(C)cccc23)NC(=O)[C@H]([C@@H](C)O)NC(=O)[C@H](CCCCNC(=O)COCCOCCNC(=O)COCCOCCNC(=O)CC[C@H](NC(=O)CCCCCCCCCCCCCCCCC(=O)O)C(=O)O)NC(=O)[C@@H](NC(=O)[C@@H](CCCNC(=N)N)NC(=O)CCC(=O)N[C@H](CC(=O)O)C[N+](C)(C)C)C(C)(C)SSC(C)(C)[C@@H](C(=O)N[C@@H](Cc2ccc(OCCN)cc2)C(=O)N[C@@H](Cc2ccc3ccccc3c2)C(=O)NC2(C(=O)N[C@@H](CCC(=O)O)C(=O)N[C@@H](CC(N)=O)C(=O)N[C@@H](Cc3cccnc3)C(=O)N(C)CC(N)=O)CCOCC2)NC1=O` [compound 18, succiniccarn-r-Pen(3)-K(PEG2PEG2gEC18OH)-T-7MeW-K(Ac)-Pen(3)-AEF-2Nal-THP-E-N-3Pya-Sar-CONH2] ({X2-Suc}-[dR][Pen]K([AEEA-AEEA-γGlu-C18 diacid])T[Trp(7-Me)]K(Ac)[Pen][AEF][2Nal][Thp]EN[3Pal][Sar]-NH2; disulfide 2-7), for which the IC50 in test [1] was 50 to 500 nM; in test [2], less than 0.5 nM.
In the same order, the values of `CC(=O)N(C)CCCC[C@@H]1NC(=O)[C@H](Cc2c[nH]c3c(C)cccc23)NC(=O)[C@H]([C@@H](C)O)NC(=O)[C@H](CCCCNC(=O)COCCOCCNC(=O)COCCOCCNC(=O)CC[C@H](NC(=O)CCCCCCCCCCCCCCCCCCC(=O)O)C(=O)O)NC(=O)[C@@H](NC(=O)CCOCCOCC[N+](C)(C)C)C(C)(C)SSC(C)(C)[C@@H](C(=O)N[C@@H](Cc2ccc(OCCCCC[N+](C)(C)C)cc2)C(=O)N[C@@H](Cc2ccc3ccccc3c2)C(=O)NC2(C(=O)N[C@@H](CCCCN(C)C(C)=O)C(=O)N[C@@H](CC(N)=O)C(=O)N[C@@H](Cc3cccnc3)C(=O)N(C)CC(=O)N(C)C)CCOCC2)NC1=O` [compound 128, cPEG3aCO-Pen(3)-K(PEG2PEG2gEC20OH)-T-7MeW-K(NMeAc)-Pen(3)-TMAPF-2Nal-THP-K(NMeAc)-N-3Pya-Sar-CON(Me)2] ({Me3N+(CH2)2O(CH2)2O(CH2)2CO}-[Pen]K([AEEA-AEEA-γGlu-C20 diacid])T[Trp(7-Me)][Lys(Me)](Ac)[Pen]Y(X1)[2Nal][Thp][Lys(Me)](Ac)N[3Pal][Sar]-NMe2; disulfide 1-6) are 50 to 500 nM and 0.5 to 5 nM.
Consider `CC(=O)NCCCC[C@@H]1NC(=O)[C@H](Cc2c[nH]c3c(C)cccc23)NC(=O)[C@H]([C@@H](C)O)NC(=O)[C@H](CC(N)=O)NC(=O)[C@@H](NC(=O)[C@H](CCCCNC(=O)COCCOCCNC(=O)COCCOCCNC(=O)CC[C@H](NC(=O)CCCCCCCCCCCCCCCCC(=O)O)C(=O)O)NC(C)=O)C(C)(C)SSC(C)(C)[C@@H](C(=O)N[C@@H](Cc2ccc(OCCCCC[N+](C)(C)C)cc2)C(=O)N[C@@H](Cc2ccc3ccccc3c2)C(=O)NC2(C(=O)N[C@@H](CCCCNC(C)=O)C(=O)NC(CC(N)=O)C(=O)N[C@@H](Cc3cccnc3)C(=O)N(C)CC(N)=O)CCOCC2)NC1=O` (stereo partly drawn) [compound 62, MeCO-K(PEG2PEG2gEC18OH)-Pen(3)-N-T-7MeW-K(Ac)-Pen(3)-TMAPF-2Nal-THP-K(Ac)-3-Pya-Sar-CONH2] (Ac-K([AEEA-AEEA-γGlu-C18 diacid])[Pen]NT[Trp(7-Me)]K(Ac)[Pen]Y(X1)[2Nal][Thp]K(Ac)[ξN][3Pal][Sar]-NH2; disulfide 2-7), for which the IC50 in test [1] is less than 50 nM; in test [2], less than 0.5 nM.
